# Target: T1, Recombinant human CBP containing the bromodomain (CBP-BD (1043-1159)) (Homo sapiens, UniProt Q92793)
# T1 construct: Recombinant human CBP bromodomain (CBP-BD (1043-1159)); made in house; host or cells: E. coli BL21-CodonPlus (DE3), modified pET vector
# Assay: CBP Alphascreen binding assay
# Settings: read-out: CREBBP (CBP) IC50
# Method: CBP Alphascreen Binding Assay
# Binding of compounds of Formula (I) with CBP was assessed using Alphascreen™ binding assay. The inhibition of the interaction between the CBP bromodomain and its acetylated target protein was measured quantitatively using recombinant CBP, an acetylated Histone 3 peptide and AlphaScreen™ technology. In absence of inhibition of the CBP protein bound to AlphaScreen™ nickel chelate acceptor beads can interact with the acetylated Histone 3 peptide which was immobilized by the AlphaScreen™ Streptavidin coated beads. This interaction brings donor and acceptor beads in proximity. The close proximity allows the singlet oxygen produced by laser excitation of the donor beads to reach the acceptor beads and generate a luminescence signal. CBP inhibitors result in a decrease in the proximity signal through an inhibition of the CBP—acetylated peptide interaction.
# Recombinant human CBP containing the bromodomain (CBP-BD (1043-1159)) was prepared and purified as described in protein expression and purification session. The peptide was human Histone H345-64K56Ac-Biotin (Anaspec CA, USA).
# Protocol for CBP assay: All components are prepared in buffer composed of 50 mM HEPES pH 7.5, 50 mM NaCl, 0.01% BSA, 0.01% Triton X-100, 2 mM DTT. Test compounds and DMSO vehicle are diluted 1:50 in buffer and a 4 μL volume was transferred to an Alphaplate. 5.5 μL of CBP protein and 5.5 μL of peptide are added to wells containing 4 μL of various concentrations of test compounds of Formula (I) or DMSO vehicle in an Alphaplate (PerkinElmer GA, USA) and incubated for 1 hour at room temperature. 5 μL donor and acceptor bead mixture was then added with final concentrations of 7.5 μg/ml. 60 minutes after bead addition, Alpha signal was read on the Envision spectrometer (λEx 680 nm, λEm 520-620 nm). Final concentrations of bromodomain proteins and peptide are as shown below.
# All data were normalized to the mean of 16 high and 16 low control wells on each plate. A four parameter curve fit of the following formula was then applied: Y=A+((B−A)/(1+((C/x)^D))) Where ‘A’ is the minimum, ‘B’ is the maximum, ‘C’ is the IC50 and ‘D’ is the Hill slope. Protein Expression and Purification
# Recombinant human CBP bromodomain (CBP-BD (1043-1159)) was expressed in E. coli cells (in a modified pET vector) with an N-terminal six-His tag and purified using a combination of both IMAC (Ni-affinity) and size exclusion chromatography steps.
# Recombinant CBP protein was expressed using the E. coli strain BL21-CodonPlus (DE3) (Agilent Technologies CA, USA). Cells were grown in Terrific Broth (TB) media to an OD600 of 0.92 at 37° C. at which temperature was reduced to 20° C., protein was induced with 1.0 mM isopropyl-β-D-thiogalactopyranoside (“IPTG”) for 20 hours and harvested by centrifugation at 8500×g for 20 minutes. Cells were re-suspended in 0.1M K2PO4 pH 8.0, 250 mM NaCl, 10% Glycerol, 0.75% NP-40, 25 mM Imidazole, with 0.2 mg/ml Lysozyme, 0.2 mM phenylmethanesulfonyl fluoride (“PMSF”), […] (“BME”), 25 μg/ml DNase I, incubated on ice for 30 minutes and lysed with a cell disruptor (MicroFluidics MA, USA). The lysate was clarified by centrifugation at 20,000×g for 1 hour. The protein was captured with Ni-NTA resin (Life Technologies, USA). Contaminating proteins were washed off with 40 mM HEPES pH 7.5, 500 mM NaCl, 5% Glycerol, 5 mM Imidazole, and 5 mM BME. Following 3× wash steps, protein was eluted using 400 mM Imidazole in 40 mM HEPES pH 7.5, 400 mM NaCl, and 5 mM BME. The protein was further purified using a size exclusion column (26/600 Superdex 200, GE Biosciences NJ, USA) in 40 mM HEPES pH 7.5, 250 mM NaCl, 5 mM BME. The protein was aliquoted and flash-frozen in liquid Nitrogen.
# T1 sequence (Q92793 1081-1197): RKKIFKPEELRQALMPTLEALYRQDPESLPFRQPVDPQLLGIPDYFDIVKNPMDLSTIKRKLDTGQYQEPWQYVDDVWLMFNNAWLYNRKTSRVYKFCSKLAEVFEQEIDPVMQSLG
row,SMILES,IC50 [µM]
1,"Cc1noc(C)c1-c1cnc2c(c1)c(-c1ccnc(O)c1)cn2[C@@H](C)c1ccccn1 [P-0145, (S)-4-(5-(3,5-dimethylisoxazol-4-yl)-1-(1-(pyridin-2-yl)ethyl)-1H-pyrrolo[2,3-b]pyridin-3-yl)pyridin-2-ol]",8 to 1000
2,"Cc1noc(C)c1-c1cnc2c(-c3ccc(C(=O)O)cc3)c(C(F)(F)F)n([C@@H](C)c3ccccn3)c2c1 [P-0154, (S)-4-(6-(3,5-dimethylisoxazol-4-yl)-1-(1-(pyridin-2-yl)ethyl)-2-(trifluoromethyl)-1H-pyrrolo[3,2-b]pyridin-3-yl)benzoic acid]",0.0001 to 1
3,"Cc1noc(C)c1-c1cnc2c(Cc3cccc(OCc4ccccc4)c3)cn(-c3c(Cl)cc(C(=O)O)cc3Cl)c2c1 [P-0132, 4-(3-(3-(benzyloxy)benzyl)-6-(3,5-dimethylisoxazol-4-yl)-1H-pyrrolo[3,2-b]pyridin-1-yl)-3,5-dichlorobenzoic acid]",0.0001 to 1
4,"Cc1noc(C)c1-c1cnc2c(Cc3cccc(OC(F)F)c3)cn(-c3ccnc(C(=O)O)c3)c2c1 [P-0100, 4-(3-(3-(difluoromethoxy)benzyl)-6-(3,5-dimethylisoxazol-4-yl)-1H-pyrrolo[3,2-b]pyridin-1-yl)picolinic acid]",0.0001 to 1
5,"COc1c(C(=O)O)cccc1-c1cn(C(C)c2ccccc2)c2cc(-c3c(C)noc3C)cnc12 (stereo not drawn) [P-0136, 3-(6-(3,5-dimethylisoxazol-4-yl)-1-(1-phenylethyl)-1H-pyrrolo[3,2-b]pyridin-3-yl)-2-methoxybenzoic acid]",0.0001 to 1
6,"CCCOc1cc(C(=O)O)cc(OCCC)c1-n1cc(CC2CCC2)c2ncc(-c3c(C)noc3C)cc21 [P-0127, 4-(3-(cyclobutylmethyl)-6-(3,5-dimethylisoxazol-4-yl)-1H-pyrrolo[3,2-b]pyridin-1-yl)-3,5-dipropoxybenzoic acid]",0.0001 to 1
7,"Cc1noc(C)c1-c1cnc2c(c1)c(-c1ccnc(C(=O)O)n1)cn2C(C)c1ccccn1 (stereo not drawn) [P-0126, 4-(5-(3,5-dimethylisoxazol-4-yl)-1-(1-(pyridin-2-yl)ethyl)-1H-pyrrolo[2,3-b]pyridin-3-yl)pyrimidine-2-carboxylic acid]",0.0001 to 1
8,"Cc1noc(C)c1-c1cnc2c(c1)c(-c1cccc(C(=O)O)n1)cn2C(C)c1ccccn1 (stereo not drawn) [P-0122, 6-(5-(3,5-dimethylisoxazol-4-yl)-1-(1-(pyridin-2-yl)ethyl)-1H-pyrrolo[2,3-b]pyridin-3-yl)picolinic acid]",1 to 8
9,"Cc1noc(C)c1-c1cnc2c(CC3CCC3)cn(-c3ccc(C#N)c(C(=O)O)c3)c2c1 [P-0104, 2-cyano-5-(3-(cyclobutylmethyl)-6-(3,5-dimethylisoxazol-4-yl)-1H-pyrrolo[3,2-b]pyridin-1-yl)benzoic acid]",0.0001 to 1
10,"Cc1noc(C)c1-c1cnc2c(CC3CCC3)cn(-c3ccc(C(=O)O)cn3)c2c1 [P-0009, 6-(3-(cyclobutylmethyl)-6-(3,5-dimethylisoxazol-4-yl)-1H-pyrrolo[3,2-b]pyridin-1-yl)nicotinic acid]",0.0001 to 1
11,"Cc1noc(C)c1-c1cnc2c(c1)c(-c1ccc(C(=O)O)cc1OC1COC1)cn2[C@@H](C)c1ccccn1 [P-0137, (S)-4-(5-(3,5-dimethylisoxazol-4-yl)-1-(1-(pyridin-2-yl)ethyl)-1H-pyrrolo[2,3-b]pyridin-3-yl)-3-(oxetan-3-yloxy)benzoic acid]",0.0001 to 1
12,"Cc1noc(C)c1-c1cnc2c(c1)c(-c1ccc(F)c(C(=O)O)c1F)cn2[C@@H](C)c1ccccn1 [P-0125, (S)-3-(5-(3,5-dimethylisoxazol-4-yl)-1-(1-(pyridin-2-yl)ethyl)-1H-pyrrolo[2,3-b]pyridin-3-yl)-2,6-difluorobenzoic acid]",0.0001 to 1
13,"Cc1noc(C)c1-c1cnc2c(CC3CCC3)cn(-c3ccc(C(=O)O)c(C#N)c3)c2c1 [P-0105, 2-cyano-4-(3-(cyclobutylmethyl)-6-(3,5-dimethylisoxazol-4-yl)-1H-pyrrolo[3,2-b]pyridin-1-yl)benzoic acid]",0.0001 to 1
14,"Cc1noc(C)c1-c1cnc2c(C3=CCOCC3)cn(-c3c(Cl)cc(C(=O)O)cc3Cl)c2c1 [P-0151, 3,5-dichloro-4-(3-(3,6-dihydro-2H-pyran-4-yl)-6-(3,5-dimethylisoxazol-4-yl)-1H-pyrrolo[3,2-b]pyridin-1-yl)benzoic acid]",0.0001 to 1
15,"COc1cc(C(=O)O)cc(OCC2CC2)c1-c1cn([C@@H](C)c2ccccn2)c2ncc(-c3c(C)noc3C)cc12 [P-0152, (S)-3-(cyclopropylmethoxy)-4-(5-(3,5-dimethylisoxazol-4-yl)-1-(1-(pyridin-2-yl)ethyl)-1H-pyrrolo[2,3-b]pyridin-3-yl)-5-methoxybenzoic acid]",0.0001 to 1
16,"Cc1noc(C)c1-c1cnc2c(c1)c(-c1ccc(C(=O)O)cc1F)cn2[C@@H](C)c1ccccn1 [P-0097, (S)-4-(5-(3,5-dimethylisoxazol-4-yl)-1-(1-(pyridin-2-yl)ethyl)-1H-pyrrolo[2,3-b]pyridin-3-yl)-3-fluorobenzoic acid]",0.0001 to 1
17,"Cc1noc(C)c1-c1cnc2c(Cc3ccccn3)cn(-c3ccc(C(=O)O)cc3OC(F)(F)F)c2c1 [P-0159, 4-(6-(3,5-dimethylisoxazol-4-yl)-3-(pyridin-2-ylmethyl)-1H-pyrrolo[3,2-b]pyridin-1-yl)-3-(trifluoromethoxy)benzoic acid]",0.0001 to 1
18,"Cc1ccc(S(=O)(=O)n2cc(-c3ccc(C(=O)O)cc3)c3cc(-c4c(C)noc4C)cnc32)cc1 [P-0006, 4-(5-(3,5-dimethylisoxazol-4-yl)-1-tosyl-1H-pyrrolo[2,3-b]pyridin-3-yl)benzoic acid]",1 to 8
19,"C#Cc1ccccc1-c1cn(C(C)(c2ccccn2)c2ccccn2)c2cc(-c3c(C)noc3C)cnc12 [P-0167, 4-(1-(1,1-di(pyridin-2-yl)ethyl)-3-(2-ethynylphenyl)-1H-pyrrolo[3,2-b]pyridin-6-yl)-3,5-dimethylisoxazole]",0.0001 to 1
20,"Cc1noc(C)c1-c1cnc2c(c1)c(-c1ccc(C(=O)O)cc1)cn2C(c1ccccn1)C1CC1 (stereo not drawn) [P-0007, 4-(1-(cyclopropyl(pyridin-2-yl)methyl)-5-(3,5-dimethylisoxazol-4-yl)-1H-pyrrolo[2,3-b]pyridin-3-yl)benzoic acid]",0.0001 to 1
21,"Cc1noc(C)c1-c1cnc2c(c1)c(-c1cncc(C(=O)O)n1)cn2[C@@H](C)c1ccccn1 [P-0106, (S)-6-(5-(3,5-dimethylisoxazol-4-yl)-1-(1-(pyridin-2-yl)ethyl)-1H-pyrrolo[2,3-b]pyridin-3-yl)pyrazine-2-carboxylic acid]",1 to 8
22,"CCOc1cc(C(=O)O)ccc1-c1cn([C@@H](C)c2ccccn2)c2ncc(-c3c(C)noc3C)cc12 [P-0114, (S)-4-(5-(3,5-dimethylisoxazol-4-yl)-1-(1-(pyridin-2-yl)ethyl)-1H-pyrrolo[2,3-b]pyridin-3-yl)-3-ethoxybenzoic acid]",0.0001 to 1
23,"Cc1noc(C)c1-c1cnc2c(c1)c(-c1cccc(C(=O)O)c1)cn2CC1(C)COC1 [P-0102, 3-(5-(3,5-dimethylisoxazol-4-yl)-1-((3-methyloxetan-3-yl)methyl)-1H-pyrrolo[2,3-b]pyridin-3-yl)benzoic acid]",1 to 8
24,"Cc1noc(C)c1-c1cnc2c(-c3cc(C(=O)O)ccc3Cl)cn(C(C)(c3ccccn3)c3ccccn3)c2c1 [P-0164, 4-chloro-3-(1-(1,1-di(pyridin-2-yl)ethyl)-6-(3,5-dimethylisoxazol-4-yl)-1H-pyrrolo[3,2-b]pyridin-3-yl)benzoic acid]",0.0001 to 1
